Values quoted from earlier work in patent US11747352B2 (Concordia University, Inc., priority 2017, dated 2023).
Where two headings read alike, the source gives them in different places.

Assays:
[1] = cited from earlier work
[2] = cited from earlier work; remark: listed apart in the source

In the case of `CCC1(c2ccccc2)C(=O)NC(=O)N(C)C1=O` (stereo not drawn) [Methylphenobarbital], the “HALF-LIFE” value ([1]; in vivo) is given as 11 to 67 h.

In the case of `CCN(CC)CCNC(=O)c1cc(Cl)c(N)cc1OC` [Metoclopramide], the “HALF LIFE” value ([1]; Table CYP2D6) is listed as 5 to 6 h.

For `COCCc1ccc(OCC(O)CNC(C)C)cc1` (stereo not drawn) [Metoprolol], the “HALF LIFE” value ([1]; Table CYP2D6) is given as 3 to 7 h.

For `CN1CCN2c3ccccc3Cc3ccccc3C2C1` (stereo not drawn) [Mianserin], the “ORAL BIOAVAILABILITY” value ([2]; Table CYP2D6) is given as 20-30% ^.

In the case of `Cc1cc(-c2ccccc2)nnc1NCCN1CCOCC1` [Minaprine], the “HALF LIFE” value ([1]; Table CYP2D6) is given as 2 to 2.5 h.

In the case of `Cc1ccnc2c1NC(=O)c1cccnc1N2C1CC1` [Nevirapine], the “ORAL BIOAVAILABILITY” value ([2]; Table CYP3A4) is given as 80-94% ^.

For `CN(C)C[C@H]1CCCC[C@]1(O)c1cccc(O)c1` [O-desmethyltramadol], the “HALF LIFE” value ([1]; Table CYP2D6) is given as 9 h.

For `Cc1cc2c(s1)Nc1ccccc1N=C2N1CCN(C)CC1` [Olanzapine], the “HALF LIFE” value ([1]; Table CYP1A2) is listed as 21 to 54 h.

In the case of `Cc1nccn1CC1CCc2c(c3ccccc3n2C)C1=O` (stereo not drawn) [Ondansetron], the “HALF LIFE” value ([1]; Table CYP1A2) is listed as 3 to 6 h and the “HALF LIFE” value ([1]; Table CYP2D6) is listed as 3 to 6.2 h.

For `COc1ccc2c3c1O[C@H]1C(=O)CC[C@@]4(O)[C@@H](C2)N(C)CC[C@]314` [Oxycodone], the “ORAL BIOAVAILABILITY” value ([2]; Table CYP2D6) is listed as 60-87% ^ and the “ORAL BIOAVAILABILITY” value ([2]; Table CYP3A4) is listed as 60-87% ^.

For `CC(=O)O[C@H]1C(=O)[C@@]2(C)[C@H]([C@H](OC(=O)c3ccccc3)[C@]3(O)C[C@H](OC(=O)[C@H](O)[C@@H](NC(=O)c4ccccc4)c4ccccc4)C(C)=C1C3(C)C)[C@]1(OC(C)=O)CO[C@@H]1C[C@@H]2O` [Paclitaxel], the “HALF-LIFE” value ([1]; Table CYP3A4) is given as 13.1 to 57.7 h.

In the case of `CC(=O)Nc1ccc(O)cc1` [Paracetamol], the “HALF LIFE” value ([1]; Table CYP1A2) is given as 1 to 4 h.

For `Fc1ccc([C@@H]2CCNC[C@H]2COc2ccc3c(c2)OCO3)cc1` [Paroxetine], the “HALF LIFE” value ([1]; Table CYP2D6) is listed as 15 to 21 h.

For `C1CCC(C(CC2CCCCN2)C2CCCCC2)CC1` (stereo not drawn) [Perhexiline], the “HALF LIFE” value ([1]; Table CYP2D6) is given as 12 to 18 h.

For `OCCN1CCN(CCCN2c3ccccc3Sc3ccc(Cl)cc32)CC1` [Perphenazine], the “HALF LIFE” value ([1]; Table CYP2D6) is listed as 9 to 12 h.

In the case of `CC(CN1c2ccccc2Sc2ccccc21)N(C)C` (stereo not drawn) [Promethazine], the “HALF LIFE” value ([1]; Table CYP2D6) is given as 16 to 19 h.

In the case of `Fc1ccccc1C1=NCC(=S)N(CC(F)(F)F)c2ccc(Cl)cc21` [Quazepam], the “ORAL BIOAVAILABILITY” value ([2]; Table CYP3A4) is listed as 29-35% ^.

For `C=C[C@H]1C[N@@]2CC[C@H]1C[C@H]2[C@H](O)c1ccnc2ccc(OC)cc12` [Quinine], the “ORAL BIOAVAILABILITY” value ([2]; Table CYP3A4) is given as 76-88% ^.

For `CCN1CCC[C@H]1CNC(=O)c1c(OC)ccc(Br)c1OC` [Remoxipride], the “HALF LIFE” value ([1]; Table CYP2D6) is given as 3 to 6 h.

For `CCOc1cc(CC(=O)N[C@@H](CC(C)C)c2ccccc2N2CCCCC2)ccc1C(=O)O` [Repaglinide], the “ORAL BIOAVAILABILITY” value ([2]; Table CYP3A4) is listed as 55%.

For `Cc1nc2n(c(=O)c1CCN1CCC(c3noc4cc(F)ccc34)CC1)CCCC2` [Risperidone], the “HALF LIFE” value ([1]; Table CYP2D6) is given as 3 to 20 h.

In the case of `CN(CCOc1ccc(CC2SC(=O)NC2=O)cc1)c1ccccn1` (stereo not drawn) [Rosiglitazone], the “HALF LIFE” value ([1]; Table CYP2C9) is given as 3 to 4 h.

For `CO[C@H]1C[C@@H]2CC[C@@H](C)[C@@](O)(O2)C(=O)C(=O)N2CCCC[C@H]2C(=O)O[C@H]([C@H](C)C[C@@H]2CC[C@@H](O)[C@H](OC)C2)CC(=O)[C@H](C)/C=C(\C)[C@@H](O)[C@@H](OC)C(=O)[C@H](C)C[C@H](C)/C=C/C=C/C=C/1C` [Sirolimus], the “ORAL BIOAVAILABILITY” value ([2]; Table CYP3A4) is given as 14-27% ^.

In the case of `CC(C(=O)O)c1ccc(C(=O)c2cccs2)cc1` (stereo not drawn) [Suprofen], the “HALF LIFE” value ([1]; Table CYP2C9) is listed as 2 to 4 h.

For `Nc1c2c(nc3ccccc13)CCCC2` [Tacrine], the “HALF LIFE” value ([1]; in vivo) is given as 2 to 4 h.

For `CC/C(=C(\c1ccccc1)c1ccc(OCCN(C)C)cc1)c1ccccc1` [Tamoxifen], the “HALF LIFE” value ([1]; Table CYP1A2) is listed as roughly 120 to 170 h, the “HALF LIFE” value ([1]; Table CYP2C9) is listed as 120 to 170 h and the “HALF LIFE” value ([1]; Table CYP2D6) is listed as 120 to 170 h.

For `CC[C@@H](c1cccc(O)c1)[C@@H](C)CN(C)C` [Tapentadol], the “HALF LIFE” value ([1]; Table CYP2C9) is listed as 4 to 5 h and the “HALF LIFE” value ([1]; Table CYP2D6) is listed as 4 to 5 h.

For `CN(C/C=C/C#CC(C)(C)C)Cc1cccc2ccccc12` [Terbinafine], the “HALF LIFE” value ([1]; Table CYP2C9) is listed as 22 to 26 h.

In the case of `Cn1c(=O)c2[nH]cnc2n(C)c1=O` [Theophylline], the “HALF LIFE” value ([1]; Table CYP1A2) is listed as 1.5 to 9.8 h.

For `CSc1ccc2c(c1)N(CCC1CCCCN1C)c1ccccc1S2` (stereo not drawn) [Thioridazine], the “HALF LIFE” value ([1]; Table CYP2D6) is listed as 21 to 24 h.

For `CCCCNC(=O)NS(=O)(=O)c1ccc(C)cc1` [Tolbutamide], the “HALF LIFE” value ([1]; Table CYP2C9) is listed as 4.5 to 6.5 h.

For `Cc1cccc(Nc2ccncc2S(=O)(=O)NC(=O)NC(C)C)c1` [Torasemide], the “HALF LIFE” value ([1]; Table CYP2C9) is given as 2.2 to 3.8 h.

In the case of `COc1cccc(C2(O)CCCCC2CN(C)C)c1` (stereo not drawn) [Tramadol], the “HALF LIFE” value ([1]; in vivo) is given as 5.5 to 6.7 h.

In the case of `CN1[C@@H]2CC[C@H]1C[C@@H](OC(=O)c1c[nH]c3ccccc13)C2` [Tropisetron], the “HALF LIFE” value ([1]; Table CYP2D6) is listed as 5.6 to 8.6 h.

In the case of `CCCc1nc(C)c2c(=O)[nH]c(-c3cc(S(=O)(=O)N4CCN(CC)CC4)ccc3OCC)nn12` [Vardenafil], the “ORAL BIOAVAILABILITY” value ([2]; Table CYP3A4) is given as 15-44% ^.

For `CC(c1cc2ccccc2s1)N(O)C(N)=O` (stereo not drawn) [Zileuton], the “HALF LIFE” value ([1]; Table CYP1A2) is given as 2.5 to 3.2 h.

For `CN(C)CCc1c[nH]c2ccc(C[C@H]3COC(=O)N3)cc12` [Zolmirripran], the “ORAL BIOAVAILABILITY” value ([2]; Table of Exemplary Drugs, CYP1A2) is given as roughly 40%.
